The record followed here is patent publication EP4703361A1, “PYRIDAZINONE TRPC4/5 INHIBITOR AND USE THEREOF” (Shanghai Institute of Materia Medica, Chinese Academy of …, priority 2023, dated 2024).

Data set [1] can be described thus: in vitro. Particulars: human, microsomes, pH 7.4.
Protocol: (§1) 0.1M pH 7.4 Tris buffer was prepared and then this buffer was used to prepare a 100 mM MgCl2 solution and a 10 mM coenzyme factor NADPH solution. The test compound was first prepared as a stock solution in DMSO and then diluted to a working concentration with 0.1% (w/v) BSA-PBS solution as needed.
(§2) During the assay, the liver microsome in TRIS buffer (final concentration of 0.33 mg/mL microsome protein), MgCl2 solution (final concentration of 5 mM), test compound solution (final concentration of 1 µM), and NADPH solution (final concentration of 1 mM) were incubated at 37°C. The reaction was terminated by adding methanol at 0, 7, 17, 30, and 60 minutes. The residual concentration of the test compound was determined using LC/MS/MS.
(§3) Calculation of in vivo clearance: Cl = (Clint × Houston × LW)/(1000); [formula]
(§4) Calculation of hepatic clearance: Clhep = (HBF × fu × Cl)/(HBF + (fu×Cl)); [formula]
(§5) Calculation of Metabolic utilization rate: %MF = 100−(Clhep × 100)/(HBF). [formula]
(§6) ke: Slope of the linear regression line (absolute value of slope) when plotting semi-logarithmic graph. The semi-logarithmic plot was made with the semi-logarithm of the remaining percentage of substrate versus reaction time. P: Microsome protein concentration (mg/mL); Houston: Houston factor (45 mg microsome protein/g liver); LW: Liver weight (g); HBF: Hepatic blood flow (mL/min); fu: Unbound fraction (typically fu=1).
The nature of data set [2]: in vitro. The settings on record: mouse, microsomes, pH 7.4.
Protocol: as §1, §2, §3, §4, §5, §6
For the next data set, the target named is T1, hTRPC5 (Homo sapiens, UniProt Q9UL62).
T1 construct: expressed in transfected cells; host or cells: HEK-293
T1 sequence (Q9UL62 1-973): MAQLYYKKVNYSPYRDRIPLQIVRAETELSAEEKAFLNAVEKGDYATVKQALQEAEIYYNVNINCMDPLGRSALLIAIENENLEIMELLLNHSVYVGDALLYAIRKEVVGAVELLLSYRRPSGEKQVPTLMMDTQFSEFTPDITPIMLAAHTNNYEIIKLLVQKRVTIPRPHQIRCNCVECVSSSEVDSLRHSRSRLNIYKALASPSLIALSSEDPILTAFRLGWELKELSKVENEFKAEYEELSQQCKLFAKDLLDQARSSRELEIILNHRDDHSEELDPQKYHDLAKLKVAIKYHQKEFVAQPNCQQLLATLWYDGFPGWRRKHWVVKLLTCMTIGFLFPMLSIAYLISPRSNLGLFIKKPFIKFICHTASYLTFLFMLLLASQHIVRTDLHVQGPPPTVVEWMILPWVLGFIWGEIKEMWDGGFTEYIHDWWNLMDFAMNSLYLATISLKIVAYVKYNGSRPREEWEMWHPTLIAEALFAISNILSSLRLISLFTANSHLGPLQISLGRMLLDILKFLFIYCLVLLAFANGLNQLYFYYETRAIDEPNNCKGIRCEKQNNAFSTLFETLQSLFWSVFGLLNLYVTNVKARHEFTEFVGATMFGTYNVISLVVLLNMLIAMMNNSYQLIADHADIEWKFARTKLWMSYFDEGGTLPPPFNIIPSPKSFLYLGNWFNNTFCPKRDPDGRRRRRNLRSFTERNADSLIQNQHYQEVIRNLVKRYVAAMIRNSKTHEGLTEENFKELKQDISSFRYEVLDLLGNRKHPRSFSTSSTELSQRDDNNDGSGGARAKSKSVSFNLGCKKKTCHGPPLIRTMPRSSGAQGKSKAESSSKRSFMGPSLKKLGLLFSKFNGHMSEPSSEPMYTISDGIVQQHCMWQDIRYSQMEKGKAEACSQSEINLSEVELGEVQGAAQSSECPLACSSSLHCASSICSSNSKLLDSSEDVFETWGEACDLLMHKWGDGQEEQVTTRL
In words: TRPC5 inhibitory activity assay (FLIPR calcium flux, Fluo-4, agonist Englerin A). It counts as cell-based. Particulars: HEK-293 cells expressing hTRPC5; agonist Englerin A 0.3 nM. The procedure:
HEK-293 cells expressing hTRPC4 or hTRPC5 were seeded into polylysine (PDL)-coated, black-bottomed, transparent 96-well plates at 2 × 10^4 cells per well. After 8 h of culture, the culture medium was discarded and 60 µL of 4 µM Fluo-4/AM dye was added. The plates were incubated at 37°C for 60 min and then rinsed five times with calcium flux assay buffer. […] After recording for 60 seconds, solvent control, test compound and positive inhibitor were added, and the signal was collected for another 300 seconds. Then, the agonist Englerin A (EA) (MedChemExpress, Shanghai, China, final concentration of 0.3 nM) was added, and the fluorescence signal was collected for another 600 seconds. The fluorescence signal in the trajectory diagram was expressed as F/F0, wherein F was the fluorescence signal at different time points and F0 was the basic fluorescence signal, that is, the average of the fluorescence signals at the first 10 time points. The dose-effect curve is first established with F/F0 = 1 as the baseline. The area under the curve of the fluorescence intensity change after the addition of EA was calculated. The IC50 value was calculated using the log[Inhibitor] vs. response - Variable slope, combining the area under the curve and the log value of the compound concentration.
In general terms: Calcium flux is commonly read through the fluorescence of an indicator in the cells.

Data set [3] can be described thus: Liver microsome stability test (mouse). Particulars: for MF %: mouse liver microsomes, metabolic bioavailability; for half-life at 1 µM: mouse, liver microsomes, pH 7.4. Background: Liver microsomes are a subcellular fraction often used to study metabolism.
Protocol: as §1, §2, §3, §4, §5, §6
Data set [4] can be described thus: Liver microsome stability test (human). Particulars: for MF %: human liver microsomes, metabolic bioavailability; for half-life at 1 µM: human, liver microsomes, pH 7.4.
Protocol: as §1, §2, §3, §4, §5, §6
The test system of data set [5] is DOCA-salt hypertensive nephropathy rats. Description: DOCA-salt-induced hypertensive nephropathy rat model. Type of data set: in vivo, SD rats. The settings on record: oral treatment for 3 weeks, losartan 30 mg/kg once a day.
Description: After one week of adaptive feeding, 40 healthy male SD rats (SPF grade, 6 weeks old, weighing 200 g) were randomly divided into cages and fed with normal water. Five rats were selected as the normal group. The other 35 rats were weighed and anesthetized with 6% (w/v) chloral hydrate (200 g/ml, Sinopharm Group Reagent Company) intraperitoneally. The dorsal surgical area was then trimmed and the rats were fixed in a prone position on a surgical board. After strict disinfection, a 2-cm incision was made on the left side of the spine, below the twelfth rib. The muscles were separated, the renal capsule was freed, and the left kidney was exposed. The renal artery and vein were ligated close to the renal hilum, and the left kidney was removed. After clearing congestion, the muscle layer and skin were sutured. After surgery (after waking up from anesthesia), the rats were given an intraperitoneal injection of penicillin sodium (80,000 units intraperitoneal injection, for 3 consecutive days, prepared with normal saline. If 400,000 units of powder were used with 2.5 mL of normal saline, and 0.5 mL was injected per mouse per day). Afterwards, the normal group was given a subcutaneous injection of vegetable oil (commonly corn oil) and fed with tap water; the DOCA-salt modeling group was given a subcutaneous injection of deoxycorticosterone acetate (DOCA, CAS: 56-47-3, Shanghai Aladdin Biochemical Technology) dissolved in vegetable oil once a week, 30 mg/kg each time, and 10 g/L NaCl and 2 g/L KCl were added to the drinking water. The model was established after 4 consecutive weeks of induction.
Four weeks after modeling, the DOCA-salt hypertensive nephropathy rats were divided into four groups according to UACR. The drug was dissolved in 2% (v/v) DMSO + 2% (w/v) Tween 80 + physiological saline system and administered by gavage. […] Normal group: 5 rats, raised normally. Each group had free access to food and water.
After the start of drug administration, rats were placed in metabolic cages to collect 24 hours urine per week. […] Three weeks after administration, serum was collected to check the concentrations of blood creatinine and urea nitrogen. Then, the rats were euthanized under anesthesia, and the renal tissues were obtained. The RNA levels of nephrin and podocin were detected by quantitative RT-PCR.
GraphPad Prism (Ver 6.0) was used for statistical analysis. All data were expressed as mean ± standard error (mean ± SEM). One-way ANOVA was used to analyze the data. Dunnett's multiple test was used to analyze the significance of the differences between the groups. When P < 0.05, the differences between the groups were statistically significant.
A short description of data set [6]: Drug tissue distribution after oral administration to mice. The settings on record: for Drug concentration Brain / Drug concentration Colon / Drug concentration Heart / Drug concentration Kidney / Drug concentration Liver / Drug concentration Lung / Drug concentration Muscle / Drug concentration Plasma / Drug concentration Spleen: mice, 10 mg/kg oral. The procedure: 250 mg of CMC-Na was weighted accurately, dissolved in 50 mL of mili-Q water, and sonicated for 1 h to prepare a 0.5% (m/v) CMC-Na solution for later use. […] After vortexing to dissolve, 140 µL of Tween 80 was added and mixed by vortex. Then 6.72 mL of CMC-Na solution was added and sonicated for 30 min to obtain 7 mL of a 1.0 mg/mL solution for use.
Mice were able to eat and drink freely and randomly divided into groups, with 3 mice in each group, and each mouse was gavaged with a dosage volume of 10 mL/kg. Blood was collected from the orbital venous plexus 1 and 4 hours after administration. Approximately 500 µL of mouse blood was placed in an EDTA-K2 anticoagulant tube. At the same time points, the brain, heart, lung, liver, kidney, spleen, colon, and muscle tissues of the mice were collected. […] Mouse brain, heart, lung, liver, kidney, spleen, colon, and muscle tissues were ground into tissue homogenate using a grinder with physiological saline equal to 5 times the weight of the tissue. The homogenate was centrifuged at 3,000 rpm for 10 min, and the supernatant was stored at -80°C for later use.
198 µL of plasma sample was placed in a centrifuge tube, 2 µl of internal standard solution was added, then 400 µL of acetonitrile was added, mixed by vortex for 1 min, and centrifuged at 13,000 rpm for 6 min. All the supernatant was taken, evaporated at room temperature for two days, re-dissolved in 200 µL of acetonitrile solvent, filtered with a 0.22 µm filter membrane and then injected for testing. 198 µL of the tissue homogenate supernatant sample was placed in a centrifuge tube, 2 µl of internal standard solution was added, then 400 µL of acetonitrile was added, mixed by vortex for 1 min, and centrifuged at 13,000 rpm for 6 min. All the supernatant was taken, evaporated at room temperature for two days, re-dissolved in 200 µL of acetonitrile solvent, filtered with a 0.22 µm filter membrane and then injected for testing.
Chromatographic column: Ultimate XB-C18 3 µM 2.1*100 mm; flow rate: 0.3 mL/min; column temperature: 30 °C; injection volume: 5 µL; mobile phase: A (pure water, containing 0.1% by volume formic acid), B (acetonitrile). The mass spectrometry ion source was an electrospray ionization (ESI) ionization source with a source temperature of 300°C.

Setting [7] is: E21 high dose (10 mg/kg morning and evening), Figure 4.
Where [8] appears, read: E21 medium dose (5 mg/kg morning and evening), Figure 3.

pIC50: −log10 of the molar value.

For orientation: half-life means the time in which the quantity being followed falls by half. A lower half-life goes with rapid decline. The pIC50 is −log10 of the IC50, conventionally taken in molar units. With `O=c1[nH]ncc(N2CCn3c(Cc4ccc(F)cc4C(F)(F)F)cnc3C2)c1Cl` [Example L002], the values for the half-life at 1 µM in “in vitro [1]” and in “in vitro [2]” were 1.1 h and 0.645 h, respectively. The pIC50 at hTRPC5 is 7.98.

With `CC(c1ccc(F)cc1Cl)c1cnc2n1CCN(c1cn[nH]c(=O)c1Cl)C2` (stereo not shown) [Example E28, 4-chloro-5-(3-(1-(2-chloro-4-fluorophenyl)ethyl)-5,6-dihydroimidazo[1,2-a]pyrazin-7(8H)-yl)pyridazin-3(2H)-one], the negative-log IC50 (pIC50) at hTRPC5 is 7.74.

Turning to `COC(c1cc(F)ccc1Cl)c1cnc2n1CCN(c1cn[nH]c(=O)c1Cl)C2` (stereo not shown) [Example E22, 4-chloro-5-(3-((2-chloro-5-fluorophenyl)(methoxy)methyl)-5,6-dihydroimidazo[1,2-a]pyrazin-7(8H)-yl)pyridazin-3(2H)-one], the pIC50 on hTRPC5 is 7.22.

In the case of `[N-]=[N+]=NC(c1cc(F)ccc1Cl)c1cnc2n1CCN(c1cn[nH]c(=O)c1Cl)C2` (stereo not shown) [Example E30, 5-(3-(azido(2-chloro-5-fluorophenyl)methyl)-5,6-dihydroimidazo[1,2-a]pyrazin-7(8H)-yl)-4-chloropyridazin-3(2H)-one], the pIC50 on hTRPC5 is 7.43.

Take `CC(c1cc(F)ccc1Cl)c1cnc2n1CCN(c1cn[nH]c(=O)c1Cl)C2` (stereo not shown) [Example E29, 4-chloro-5-(3-(1-(2-chloro-5-fluorophenyl)ethyl)-5,6-dihydroimidazo[1,2-a]pyrazin-7(8H)-yl)pyridazin-3(2H)-one]: in data set [3], the MF % stood at 54.4% and the half-life at 1 µM worked out at 0.94 h. In data set [4], the MF % is given as 39.6% and the half-life at 1 µM stood at 1.17 h.

On to `[2H]C([2H])([2H])OC(c1ccc(F)cc1C)c1cnc2n1CCN(c1cn[nH]c(=O)c1Cl)C2` (stereo not shown) [Example E24, 4-chloro-5-(3-((4-fluoro-2-methylphenyl)(methoxy-d3)methyl)-5,6-dihydroimidazo[1,2-a]pyrazin-7(8H)-yl)pyridazin-3(2H)-one], for which the MF % in data set [3] is listed as 55.9%; in data set [4], 63.8%. Moreover, the values for the half-life at 1 µM in data set [3] and in data set [4] were 0.997 h and 3.15 h, respectively.

`C=C(c1cc(F)ccc1Cl)c1cnc2n1CCN(c1cn[nH]c(=O)c1Cl)C2` [Example E27, 4-chloro-5-(3-(1-(2-chloro-5-fluorophenyl)vinyl)-5,6-dihydroimidazo[1,2-a]pyrazin-7(8H)-yl)pyridazin-3(2H)-one]: the pIC50 at hTRPC5 is 8.28.

Regarding `[N-]=[N+]=NC(c1ccc(F)cc1C(F)(F)F)c1cnc2n1CCN(c1cn[nH]c(=O)c1Cl)C2` (stereo not shown) [Example E9, 5-(3-(azido(4-fluoro-2-(trifluoromethyl)phenyl)methyl)-5,6-dihydroimidazo[1,2-a]pyrazin-7(8H)-yl)-4-chloropyridazin-3(2H)-one], the pIC50 at hTRPC5 was 7.61.

Take `CCCCc1nc(Cl)c(CO)n1Cc1ccc(-c2ccccc2-c2nn[nH]n2)cc1` [losartan]: in data set [5] (setting [7]), the “levels of nephrin (mRNA, kidney)” value was “effectively increase” and the “levels of podocin (mRNA, kidney)” value is “effectively increase”. Besides, in data set [5] (setting [8]), the “serum creatinine (Scr)” value was “effectively reduce” and the “urea nitrogen (BUN)” value is listed as “no effect”.

As for `COC(c1ccc(F)cc1Cl)c1cnc2n1CCN(c1cn[nH]c(=O)c1Cl)C2` (racemic) [Example E21, 4-chloro-5-(3-((2-chloro-4-fluorophenyl)(methoxy)methyl)-5,6-dihydroimidazo[1,2-a]pyrazin-7(8H)-yl)pyridazin-3(2H)-one], the “drug exposure and distribution in plasma, liver, and kidney” value in data set [6] (1 and 4 hours after oral administration to mice) is “good”. In addition, in data set [6] (1 h), the “Drug concentration Brain” value was 52 ng/g, the “Drug concentration Colon” value worked out at 824 ng/g, the “Drug concentration Heart” value is on record as 191 ng/g and the “Drug concentration Kidney” value is 719 ng/g. Besides, in data set [6] (1 h), the “Drug concentration Liver” value was 565 ng/g, the “Drug concentration Lung” value came to 219 ng/g, the “Drug concentration Muscle” value came to 153 ng/g and the “Drug concentration Plasma” value was 1147 ng/mL. For the same compound, in data set [6] (1 h), the “Drug concentration Spleen” value came out at 531 ng/g. For the same compound, in data set [6] (4 h), the “Drug concentration Brain” value is 28 ng/g, the “Drug concentration Colon” value worked out at 133 ng/g, the “Drug concentration Heart” value was determined as 26 ng/g and the “Drug concentration Kidney” value is recorded as 97 ng/g. For the same compound, in data set [6] (4 h), the “Drug concentration Liver” value is given as 205 ng/g, the “Drug concentration Lung” value amounted to 39 ng/g, the “Drug concentration Muscle” value is 52 ng/g and the “Drug concentration Plasma” value came to 250 ng/mL. Moreover, the “Drug concentration Spleen” value in data set [6] (4 h) was 60 ng/g.

`O=C(c1ccc(F)cc1C(F)(F)F)c1nnc2n1CCN(c1cn[nH]c(=O)c1Cl)C2` [Example E41, 4-chloro-5-(3-(4-fluoro-2-(trifluoromethyl)benzoyl)-5,6-dihydro-[1,2,4]triazolo[4,3-a]pyrazin-7(8H)-yl)pyridazin-3(2H)-one]: the pIC50 at hTRPC5 was 6.84.
